Assay [1] deals with osteoclast like cells from bone marrow cells of mice of C 57 BL/6 strain. Description: Formation of osteoclast like cells from bone marrow cells of mice of C 57 BL/6 strain. Format: cell-based, mouse. The settings on record: Example 2, C 57 BL/6 strain bone marrow cells. Here is the method:
The number of viable bone marrow cells was counted using tripam blue dye exclusion test and the bone marrow cells were diluted with α-MEM containing 10% JCS, 10^−8M Vit D3, 10^−7 M dexamethasone to a population density of 1.5×10^6 cells/ml, followed by placing the resulting suspension in each well in 24-well plates in an amount of 0.45 ml/well. To each well, 50 μl of the medium containing varying concentration of IFN was added to make the volume to 0.5 ml/well and culturing was begun. At every three days, 0.4 ml of the culture medium was removed from each well and 0.4 ml of fresh medium (the above-mentioned medium containing the respective concentration of IFN) was added. On Day 8 from the beginning of the culturing, the medium was removed and the cells were fixed with mixed solution of ethyl alcohol and diethyl ether (1:1) and the cells were stained with tartrate resistant acid phosphatase (TRAP), followed by counting TRAP positive multinuclear cells with a phase contrast microscope. […] The inhibition effect of IFNγ was stronger than that of IFNβ. That is, the inhibition concentration IC50 of IFNγ was not more than 0.1 units/ml, and that of IFNβ was 0.2 units/ml.
In place of mice of ddy strain, male mice of C 57 BL/6 of 7 weeks old were used. The mice were exanguinated to death under ether anesthesia and the femur and the tibia of hind legs were collected from each mouse. The connective tissues on the surfaces of the bones were carefully removed, and both ends of each bone were cut off with scissors. The bone marrow cells were suspended in α-MEM containing 10% JCS and the suspension was flushed out through a 25 G needle attached to a syringe to collect the suspension in a centrifugal tube. The collected suspension was washed by centrifugation in the same medium at 2000 rpm at 4° C. for 5 minutes. The precipitated cells were dispersed in the above-mentioned medium and the washing by centrifugation was repeated twice. Formation of osteoclast like cells was measured by the same method as in Example 1.

The next assay relates to MC3T3-E1 cells. Description: Quantification of calcium in calcified foci of MC3T3-E1. Format: cell-based, mouse. The following applies: 1000 units/ml; MC3T3-E1, Day 14. The method, then:
MC3T3-E1 cells were placed in each well in 24-well plates in an amount of 50,000 cells/well and cultured to confluency. The medium was removed and fresh α-MEM containing 10% JCS, 50 μg/ml of L-ascorbic acid and 10 mM β-glycerophosphate was added in an amount of 0.9 ml/well, followed by adding 0.1 ml/well of medium containing varying concentration of IFN. The medium was replaced with IFN-free medium every 4 days. On Day 14, the medium was removed and the cells were lightly washed with Hank's solution. Anhydrous ethanol was added in an amount of 1 ml/well and fixation was carried out at room temperature for 15 minuets. Then the anhydrous ethanol was replaced with fresh anhydrous ethanol in an amount of 1 ml/well and 5 minutes later, each well was dried in the air. Then 1N hydrochloric acid was added in an amount of 1 ml/well and extraction was carried out at room temperature for 30 minutes. The total contents of each well were transferred to an Eppendorf tube and centrifuged at 1800×g at 4° C. for 10 minutes The amount of calcium in the supernatant was measured by Calcium C Test Wako and the amount of inorganic phosphorus in the supernatant was measured by Phospha B Test Wako. […] The IC50 value was as low as about 10 units/ml (FIG. 5).

The subject of assay [2] is ovariectomized mice of ddy strain. Description: Osteoporosis model mice: urinary D-Pyr (bone resorption marker). The settings on record: for amount of excreted urinary D-Pyr compensated with urinary creatinine: ovariectomized mice, Week 4. Format: in vivo, mouse. The method, then: Female mice of ddy strain of 8 weeks old were divided into 5 groups and experiment was carried out. Bilateral ovariectomy was performed on the mice in 3 groups and sham operation alone was performed on the mice in 2 groups. Thereafter, the mice were raised with normal diet for 1 month, thereby making the state of osteoporosis in the ovariectomized groups. In this model, it is known that the mice become the state of osteoporosis 2 to 3 weeks after the ovariectomy (T. Hosaka et al., ANITEX, Vol. 5, 243, 1992; Miyaura, C. et al., J. Bone Mineral Res., 10, 1365, 1995). From the third weeks from the ovariectomy, murine IFN was subcutaneously administered (100 μl/head/time) once per day, totally 25 times. On Day 30 from the beginning of administration, under ether anesthesia, body weight was measured, blood was collected, and femur was collected and dry bone weight thereof was measured for each mouse.
Drying of femur was performed as follows. That is, femur was fixed with 2 ml of 70% ethanol per one taken out femur at room temperature for 24 hours and then the attached muscles and connective tissues were carefully removed with a forceps and surgical knife with replaceable blade. After immersing the femur in fresh 70% ethanol for 72 hours at room temperature, the femur was dried in a hot wind-generating incubator (Koukensha Engineering. Co., Tokyo) at 55° C. for 24 hours. The weight of the dried bone was measured with an electronic force balance (Mettler AE50, Metteler Instrumente AG, Switzerland). Murine IFN to be administered was diluted to the desired concentration with physiological saline. During the test, urine of mice was collected with metabolic cage (KN-645, Natsumeseisakusho, Tokyo) and frozen to store. To one group subjected to the sham operation, physiological saline (Otsuka Pharmaceutical Co.) was administered, and to another group subjected to the sham operation, murine IFNβ was administered at a dose of 10^5 units/head/time (diluted with physiological saline when use). […]

This is an account of results in US20050180954A1, “Drug for treating bone disorders” (priority 1995, published 2005).

“MuIFNβ: murine interferon β, Lot M-0034, prepared by Toray Industries, Inc. by genetic engineering technique”: the “inhibition of formation of osteoclast like cells” value in assay [1] is given as “strongly inhibited formation of osteoclast like cells”. In addition, the “IC50 of formation inhibition of osteoclast like cells” value in assay [1] (Day 8) is 0.1 units/ml. Also, the “calcium deposition smaller than the control” value with MC3T3-E1 cells was 20%. The “amount of excreted urinary D-Pyr compensated with urinary creatinine” value in assay [2] (10^3 units/head/time) and in assay [2] (10^5 units/head/time) was “inhibition of bone resorption was observed” throughout. Further, the “inhibition of excretion of urinary deoxypyridinoline” value in assay [2] (sham operation groups) is listed as “is exhibited also in the sham operation groups”.
